Data as given in patent EP1267826B1, “PHARMACEUTICAL COMPOSITION FOR TREATMENT OF MUCOSAL EPITHELIAL ULCERATION AND/OR EROSION” (LIF-HLAUP EHF. BIO-GELS PHARMACEUTICALS INC., priority 1999, dated 2001).
Several values for one entry are separate records, joined by “and”; a condition that tells them apart may be missing. Identical values can stand only once.

Experiments:
MMP-2 = target: T1, MMP-2 (Homo sapiens, UniProt P08253); assay: Zymography, inhibition of gelatinolytic activity; type: biochemical; conditions: MMP-2 acquired from HT-1080; result determined visually; read-out: concentration at which complete inhibition was achieved
T1 construct: known to secrete a large amount of several matrix-degrading enzymes, among which are MMP-2 and MMP-9; endogenous in cells; host or cells: HT-1080 human fibrosarcoma cells (secreted enzyme)
T1 sequence (P08253 110-660): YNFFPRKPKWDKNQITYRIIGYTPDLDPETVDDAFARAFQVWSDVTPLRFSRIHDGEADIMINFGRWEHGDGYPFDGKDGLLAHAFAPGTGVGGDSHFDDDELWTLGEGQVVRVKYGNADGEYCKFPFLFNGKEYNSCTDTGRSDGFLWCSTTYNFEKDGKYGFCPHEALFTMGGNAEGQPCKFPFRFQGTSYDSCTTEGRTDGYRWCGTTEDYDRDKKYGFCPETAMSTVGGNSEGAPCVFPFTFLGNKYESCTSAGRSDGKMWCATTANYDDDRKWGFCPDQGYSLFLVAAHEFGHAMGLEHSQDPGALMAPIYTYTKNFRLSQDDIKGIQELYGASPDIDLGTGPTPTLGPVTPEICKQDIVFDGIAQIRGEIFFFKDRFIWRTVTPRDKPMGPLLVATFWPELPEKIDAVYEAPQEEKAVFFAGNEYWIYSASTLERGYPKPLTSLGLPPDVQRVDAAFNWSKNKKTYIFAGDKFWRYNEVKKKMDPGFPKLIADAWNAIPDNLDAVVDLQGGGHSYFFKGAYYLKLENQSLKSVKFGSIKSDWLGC
Source text: (§1) In checking the inhibition of the doxycycline on MMP's a Zymography method was used (Mackay et al., Cancer Res., 50(18), 5997-6001, 1990).
(§2) Cell culture: HT-1080 is human fibrosarcoma cell line which is known to secrete a large amount of several matrix-degrading enzymes, among which are MMP-2 and MMP-9 (Kawamata et al., International Journal of Oncology, 13, 699-704, 1998).

MMP-9 = target: T2, MMP-9 (Homo sapiens, UniProt P14780); assay: Zymography, inhibition of gelatinolytic activity; type: biochemical; conditions: MMP-9 acquired from HT-1080; result determined visually; read-out: concentration at which complete inhibition was achieved
T2 construct: known to secrete a large amount of several matrix-degrading enzymes, among which are MMP-2 and MMP-9; endogenous in cells; host or cells: HT-1080 human fibrosarcoma cells (secreted enzyme)
Source text: as §1, §2

MMP's = conditions: literature (Burns et al. 1989; Gabler et al. 1991); cited from earlier work

T2 sequence (P14780 94-707): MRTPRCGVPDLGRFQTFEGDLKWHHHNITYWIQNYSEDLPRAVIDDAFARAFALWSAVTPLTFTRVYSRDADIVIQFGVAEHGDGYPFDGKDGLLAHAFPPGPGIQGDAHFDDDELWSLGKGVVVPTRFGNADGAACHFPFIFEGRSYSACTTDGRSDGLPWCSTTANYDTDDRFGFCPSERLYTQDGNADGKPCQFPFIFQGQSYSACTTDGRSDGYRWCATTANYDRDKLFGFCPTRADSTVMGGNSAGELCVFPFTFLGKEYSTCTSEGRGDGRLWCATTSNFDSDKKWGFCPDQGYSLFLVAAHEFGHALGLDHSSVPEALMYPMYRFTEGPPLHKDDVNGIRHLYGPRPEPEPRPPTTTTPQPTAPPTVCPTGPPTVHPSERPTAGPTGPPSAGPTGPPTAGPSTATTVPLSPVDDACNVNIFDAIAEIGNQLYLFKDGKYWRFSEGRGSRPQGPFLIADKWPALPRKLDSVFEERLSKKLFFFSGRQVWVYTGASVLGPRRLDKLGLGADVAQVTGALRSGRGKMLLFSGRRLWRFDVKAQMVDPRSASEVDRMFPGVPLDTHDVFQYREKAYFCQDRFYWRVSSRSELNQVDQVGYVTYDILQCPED

Row | Structure (SMILES) | IC100 (MMP-2) | IC100 (MMP-9) | inhibition of the MMP's (in words) (MMP's)
1 | C[C@H]1c2cccc(O)c2C(=O)C2=C(O)[C@]3(O)C(=O)C(C(N)=O)=C(O)[C@@H](N(C)C)[C@@H]3[C@@H](O)[C@@H]21 [doxycycline] | 100 µM and 48 µg/mL | 50 µM and 24 µg/mL | –
2 | CCN(CC)CCCCCCCCOC(=O)c1cc(OC)c(OC)c(OC)c1 [TMB-8] | – | – | have shown inhibition of MMP's
3 | O=C(O)CN(CCN(CC(=O)O)CC(=O)O)CC(=O)O [EDTA] | – | – | have shown inhibition of MMP's
